From ChEMBL document CHEMBL5150012, “N-Substituted Valiolamine Derivatives as Potent Inhibitors of Endoplasmic Reticulum α-Glucosidases I and II with Antiviral Activity” (J Med Chem, 2021)

Legend:
[1] = Inhibition of full length human recombinant Endoplasmic reticulum alpha-glucosidase 1 expressed in Escherichia coli using trisaccharide as substrate incubated for 60 mins
SARS-CoV-2 = test: Antiviral activity against SARS-CoV-2 England/2/2022 assessed as reduction in viral infection; format: functional, organism-based; conditions: Severe acute respiratory syndrome coronavirus 2, England/2/2022
[2] = Selectivity index, ratio of CC50 for cytotoxicity against African green monkey Vero cells to IC50 for antiviral activity against DENV New Guinea C strain infected in African green monkey Vero cells; format: toxicity, cell-based; conditions: read-out: Ratio CC50/IC50
Dengue virus type 2 = test: Antiviral activity against DENV New Guinea C strain infected in African green monkey Vero cells assessed as reduction in viral infection measured after 5 days by plaque assay; conditions: 120 h
[3] = Inhibition of full length N-terminal his6-tagged mouse recombinant Endoplasmic reticulum alpha-glucosidase 2 expressed in DH10 Escherichia coli using Fluorogenic 1,4-methyl-lumbelliferon as substrate preincubated for 60 mins followed by substrate addition and measured after 30 mins
[4] = Cytotoxicity against African green monkey Vero cells assessed as reduction in cell viability incubated for 3 to 5 days by Cell titer-glo luminescent assay; format: toxicity, cell-based; conditions: chlorocebus sabaeus, time 3-5 day

SMILES	IC50 [1]	IC50 (SARS-CoV-2)	selectivity ratio [2]	IC50 (Dengue virus type 2)	IC50 [3]	CC50 [4]
[N-]=[N+]=Nc1ccc(NCCCCCCN[C@H]2C[C@](O)(CO)[C@@H](O)[C@H](O)[C@H]2O)c([N+](=O)[O-])c1	0.73 µM	12.3 µM	88	1.38 µM	0.0337 µM	122 µM
O=[N+]([O-])c1cc(-c2ncccn2)ccc1NCCCCCCN[C@H]1C[C@](O)(CO)[C@@H](O)[C@H](O)[C@H]1O	0.644 µM	70 µM		105 µM	0.0011 µM	762 µM
CCCCN1C[C@H](O)[C@@H](O)[C@H](O)[C@H]1CO		42.2 µM				
COCCCCCCCCCN[C@H]1C[C@](O)(CO)[C@@H](O)[C@H](O)[C@H]1O	10.8 µM	270 µM		75.9 µM	0.49 µM	1070 µM
[N-]=[N+]=Nc1ccc(NCCCCN[C@H]2C[C@](O)(CO)[C@@H](O)[C@H](O)[C@H]2O)c([N+](=O)[O-])c1	2.42 µM	9.48 µM		61.4 µM	1.01 µM	1020 µM
O=[N+]([O-])c1cc(-n2ccnn2)ccc1NCCCCCCN[C@H]1C[C@](O)(CO)[C@@H](O)[C@H](O)[C@H]1O	1.27 µM	292 µM	102	13.5 µM	0.0155 µM	1380 µM
N[C@H]1C[C@](O)(CO)[C@@H](O)[C@H](O)[C@H]1O [VALIOLAMINE]	87.4 µM	> 1000 µM		> 1000 µM	> 100 µM	831 µM
O=[N+]([O-])c1cc(-n2nccn2)ccc1NCCCCCCN[C@H]1C[C@](O)(CO)[C@@H](O)[C@H](O)[C@H]1O	0.0479 µM	> 100 µM	6.9	18.2 µM	< 0.001 µM	126 µM
[N-]=[N+]=Nc1ccc(NCCOCCN[C@H]2C[C@](O)(CO)[C@@H](O)[C@H](O)[C@H]2O)c([N+](=O)[O-])c1	3.66 µM			293 µM	37 µM	1750 µM
O=[N+]([O-])c1cc(-n2cnnn2)ccc1NCCCCCCN[C@H]1C[C@](O)(CO)[C@@H](O)[C@H](O)[C@H]1O	32 µM			> 1000 µM	1.42 µM	1360 µM
CCCCN[C@H]1C[C@](O)(CO)[C@@H](O)[C@H](O)[C@H]1O	29.5 µM			158 µM		> 1000 µM
[N-]=[N+]=Nc1ccc(NCCOC(=O)NCCN[C@H]2C[C@](O)(CO)[C@@H](O)[C@H](O)[C@H]2O)c([N+](=O)[O-])c1	1.13 µM	53.7 µM		> 1000 µM		> 1000 µM
